# Test results as given in patent US20060258617A1, “DRUG DELIVERY TO THE BACK OF THE EYE” (Allergan, Inc., priority 2004, published 2006).
# Assay: Osmolality of cyclodextrins as a function of concentration in pure water
# Type: physicochemical
# Details: ambient room temperature, various concentrations (FIG. 5)
# Protocol: The osmolality of four cyclodextrins was determined as a function of concentration in pure water by the following procedure. Various amounts of cyclodextrins were dissolved in water at ambient room temperature.
substance,measurement,value
sulfobutylether-β-cyclodextrin [NaSBECD],osmolality,significantly higher osmolality than the other β-cyclodextrins tested
